Assay [1] concerns HIV-1 LTR. Briefly: ChIP assay on HIV-1 LTR in TSA treated TZM-bl cells. In kind it is cell-based. The following applies: TZM-bl after TSA treatment. How it is done:
Primers specific for the HIV-1 LTR were used to amplify DNA that was precipitated with each antibody. Lane 1 indicates basal levels of repressive markers on the HIV-1 LTR.
TZM-bl cells were treated with TSA for 7 days and processed for ChIP. For ChIP, approximately 5×10^6 cells were used per IP. ChIP assays were performed as previously described. PCR was performed using 0.1 μM of HIV-1 LTR primers (Klase et al, 2007; Guendel et al, 2009; Easley et al, 2010).
(§1) To observe the effect of drug on heterochrmatin formation, the present inventor used a ChIP assay. Briefly, TZM-bl cells were treated with TSA (FIGS. 16 and 17), and then treated with CR8#13.

The next assay relates to HIV-1 LTR-CAT reporter. Briefly: CAT assay of Tat-mediated transactivation in HCT116 WT and Dicer-/- cells. The format is cell-based. The following applies: HCT116 WT (Dicer) versus Dicer-/-; 48 hrs; Flavopiridol, CR8#13, F07#13 100 nm, 9AA 1000 nm. How it is done:
Six hours later, the transfected cells were treated with DMSO, Flavopirodol (100 nm), CR8#13 (100 nm), F07#13 (100 nm), and 9AA (1000 nm). Treated cells were incubated in complete DMEM for 48 hrs at 37° C. Cells were harvested and cell extracts were used for CAT analysis. One tenth the amount of HCT116 Dicer−/−extract compared to HCT116 WT was used for CAT analysis. […] The corresponding bar graphs in A and B show values that represent the percentage of conversion of the [14C] chloramphenicol substrate in the CAT assay.
Various cells lines were transfected with the HIV-1 LTRCAT plasmid and pc-Tat to initiate the LTR transcription, and subsequently subjected to various drug treatments. After 48 hrs, cells were lysed and CAT assays were performed as previously described (Guendel et al, 2009; Van Duyne et al, 2008; Easley et al, 2010).
To evaluate the role on microRNA machinery in inhibition of viral transcription activity, HCT116 colon carcinoma cell lines that either contained a WT Dicer (HCT116 WT) or lacked the Dicer protein (HCT116 Dicer-−/−) were first transfected with the HIV-1 LTR-CAT reporter construct. The HIV-1 LTR transcription was activated with pc-Tat and following incubation for 6 hours was treated with DMSO (negative control), Flavopiridol (positive control), CR8#13, F07#13, or 9AA.
Cells were harvested 48 hrs-post treatment and processed for CAT assays (FIGS. 3A and B). […] Based on this observation the inventors hypothesize that the microRNA machinery, Dicer and Drosha, plays an inhibitory role in HIV-1 transcription.

For assay [2], the system named is HIV-1 LTR. Briefly: Luciferase assay of Tat-dependent HIV-1 LTR transcription in TZM-bl cells. The format is cell-based. Particulars: TZM-bl cells transfected with Tat, 50 nm, 48 hrs. How it is done:
(§2) FIGS. 1 and 2 show screening results of CR8 derivatives on Tat-dependent transcription HIV-1 LTR. […] TZM-bl cells were transfected with 1 ug of Tat and treated the next day with DMSO, or the indicated CR8 derivative compounds at 50 nm. 48 hrs-post drug treatment, luciferase activity of the firefly luciferase was measured with the BrightGlo Luciferase Assay and luminescence was read from a 96 well plate on an EG&G Berthold luminometer. Assays were performed in triplicate, average and standard deviations are shown.
TZM-bl cells were transfected with pc-Tat (0.5 μg) using Attractene reagent (Qiagen) according to the manufacturers' instructions. Twenty-four hours later, cells were treated with DMSO or the indicated compound. Forty-eight hours-post drug treatment, luciferase activity of the firefly luciferase was measured with the BrightGlo Luciferase Assay (Promega).
These cells were brought into contact with 18 Formula I compounds.
Briefly, the addition of Tat protein enables activated transcription of HIV-1 promoter driving luciferase in these cells. Treated cells were assayed at 48 hrs after Tat transfection and drug treatment.

For a further assay, the system named is TAR microRNA. Briefly: RNase protection assay for TAR and TAR miRNA in TNF treated ACH2 cells. The format is cell-based, HIV-1. The following applies: CR8#13 50 nm compared to Flavopiridol 50 nm, 48 hrs. The source says:
Ten micrograms of total RNA from TNF treated CEM (lane 1) and TNF treated ACH2 cells (lanes 2-6) were hybridized to a radiolabeled TAR 5′ probe and then treated with RNase A. Arrows indicate the probe protected by TAR at 27 nucleotides and the probe protected by a TAR miRNA at approximately 22 nt. Cyc202 concentration at 500 nm, CR8 at 100 nm, CR8#13 at 50 nm, and Flavopiridol at 50 nm were used for these experiments.
Total RNA was extracted from TNF-treated CEM and ACH2 cells follow by drug treatment with Cyc202 (500 nm), CR8 ([…]), CR8#13 (50 nm), and Flavopiridol (50 nm) for 48 hrs using Trizol reagent (Invitrogen). RNase protection assays were performed as previously described (Klase et al, 2007).
RNA polymerase II associated with HIV-1 promoter, however, is phosphorylated on both Ser2 and 5 in the presence of Tat (see Zhou et al, 2004). In order to ascertain whether or not cells treated with CDK inhibitors according to the present invention produce additional TAR derived miRNA, the inevntor utilized RNase protection assays to detect small RNA fragments corresponding to the TAR sequence.
Briefly, a probe complementary to the entire length of the 5′ portion of the TAR stem loop was designed, which would detect the generation of ˜21 nt RNAs from any position within that sequence. […]

The subject of another assay is integrated HIV-1-Luc. Briefly: Luciferase assay in TSA treated TZM-bl cells. In kind it is cell-based. The following applies: TSA and CR8#13 versus TSA alone. How it is done: Luciferase activity increased with TSA treatment and then decreased post-CR8#13 treatment.
as §1

For assay [3], the system named is infected ACH2, J1.1, OM10.1, U1 cells. Briefly: MTT assay, infected cells. Particulars: 50 nm and 10 μM. In kind it is cell-based. How it is done: as §2
Quantitative MTT assays were performed (FIG. 2), to further validate the cell growth inhibitory activity of certain Formula I compounds. In this study, cultured, infected ACH2, J1.1, OM10.1, U1 and uninfected CEM, Jurkat T-cells, and U937 cells were brought in contact with Formula I compounds CR8, MRT-033, and BJFP1154 (CR8#13). Cell growth inhibition study was performed at two different concentrations of the inventive compounds, a low concentration of 50 nm, and high concentration of 10 μM.
Background: Tetrazolium assays rely on reduction of a dye to a coloured formazan, in cell work by metabolically active cells.

Another assay has as its system HIV-1. Briefly: Viral inhibition (HIV-1). In kind it is cell-based. Particulars: versus Cyc202.

“Also recorded” adds a separate entry of the source.

`CC(C)c1cnn2c(NCc3ccc(-c4ccccn4)cc3)nc(NC[C@H](O)CO)nc12.O=C(O)/C=C/C(=O)O` [BJFP1154]: the “recruitment of HDAC1, Ago2, Suv39H1 to the HIV-1 promoter (ChIP)” value in the assay with HIV-1 LTR [1] is “re-recruitment of heterochromatin markers”. Also, the “inhibition of viral transcription (CAT)” value in the assay with HIV-1 LTR-CAT reporter was “inhibited viral transcription significantly better in cells that contained Dicer”. Also, the “inhibition of HIV-1 LTR transcription (luciferase)” value with HIV-1 LTR [2] was “greatest transcriptional inhibition; also recorded: significant inhibition of HIV-1 transcription”. The “levels of TAR and miTAR RNA (RPA)” value in the assay on TAR microRNA is “Higher levels of TAR and miTAR RNA”. For the same compound, the Luciferase activity entry with integrated HIV-1-Luc was “decrease Luciferase activity”.
As for `CC[C@@H](CO)Nc1nc(NCc2ccc(-c3ccccn3)cc2)c2ncn(C(C)C)c2n1` [CR8], the “cell killing of infected cells (MTT)” value in assay [3] is listed as “significant cell killing of infected cells over uninfected cells”. In addition, in the assay on HIV-1, the “potency relative to Cyc202 (viral inhibition)” value is recorded as “roughly 25 times”.

These data come from US20120149708A1, “MODULATORS OF VIRAL TRANSCRIPTION, AND METHODS AND COMPOSITIONS THEREWITH” (George Mason University, priority 2010, published 2012).
